Structures are written as SMILES.

The assay relates to HIV. Kind of assay: MT4 Assay (anti-HIV activity). In kind it is cell-based. Conditions: Human immunodeficiency virus 1, 96 h, read-out: HIV MT4 Assay IC50, HTLV-1 transformed cell line MT-4, cell titer glo, 10 point dose response curve. A digest of the protocol:
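MT-4 cells (HTLV-1 transformed) were used for antiviral activity and cytotoxicity, run in parallel, with luminescence read by CellTiter-Glo 96 hours later. Percent inhibition was expressed against the no-compound control. IC50s came from 10-point curves of 3-4-fold serial dilutions spanning >1000-fold.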
Background: ATP-based viability assays read luminescence as a measure of living cells.
As for `Cn1c(C(OC(C)(C)C)C(=O)O)c(-c2ccc3ccccc3c2)c2ccccc2c1=O` (stereo not shown) [Example 64, 2-(tert-butoxy)-2-[2-methyl-4-(naphthalen-2-yl)-1-oxo-1,2-dihydroisoquinolin-3-yl]acetic acid], the IC50 (as a rule, the concentration needed to halve the response being measured) is 8.7 µM.

Turning to `Cn1c(C(OC(C)(C)C)C(=O)O)c(-c2cc3c4c(c2)CCCN4CCC3)c2ccccc2c1=O` (stereo not shown) [Example 158, [(1,1-dimethylethyl)oxy][2-methyl-1-oxo-4-(2,3,6,7-tetrahydro-1H,5H-pyrido[3,2,1-ij]quinolin-9-yl)-1,2-dihydro-3-isoquinolinyl]acetic acid], the half-maximal inhibitory concentration (IC50) was found to be 50 µM. In the case of `COc1ccc(-c2c(C(OC(C)(C)C)C(=O)O)n(C)c(=O)c3ccccc23)cc1C` (stereo not shown) [Example 54, 2-(tert-butoxy)-2-[4-(4-methoxy-3-methylphenyl)-2-methyl-1-oxo-1,2-dihydroisoquinolin-3-yl]acetic acid] it was 12.3 µM; in that of `Cc1c(-c2c(C(OC(C)(C)C)C(=O)O)n(C)c(=O)c3cc(F)ccc23)cc(F)c2c1CCCO2` (stereo not shown) [Example 92, 2-(tert-butoxy)-2-[7-fluoro-4-(8-fluoro-5-methyl-3,4-dihydro-2H-1-benzopyran-6-yl)-2-methyl-1-oxo-1,2-dihydroisoquinolin-3-yl]acetic acid], 0.14 µM.

Consider `Cc1c(-c2c([C@H](OC(C)(C)C)C(=O)O)n(C)c(=O)c3cc(OCCF)ccc23)ccc2c1CCCO2` [Example 141, (2S)-2-(tert-butoxy)-2-[7-(2-fluoroethoxy)-2-methyl-4-(5-methyl-3,4-dihydro-2H-1-benzopyran-6-yl)-1-oxo-1,2-dihydroisoquinolin-3-yl]acetic acid], for which the IC50 turned out to be 0.03 µM.

Turning to `Cn1c(C(OC(C)(C)C)C(=O)O)c(-c2cc(Cl)cc(Cl)c2)c2ccccc2c1=O` (stereo not shown) [Example 12, 2-(tert-butoxy)-2-[4-(3,5-dichlorophenyl)-2-methyl-1-oxo-1,2-dihydroisoquinolin-3-yl]acetic acid], the half-maximal inhibitory concentration (IC50) stood at 36.7 µM. As to `Cn1c(C(OC(C)(C)C)C(=O)O)c(-c2cccnc2)c2ccccc2c1=O` (stereo not shown) [Example 41, 2-(tert-butoxy)-2-[2-methyl-1-oxo-4-(pyridin-3-yl)-1,2-dihydroisoquinolin-3-yl]acetic acid], the half-inhibitory concentration (IC50) was 50 µM. As to `COc1c(C)cc(-c2c(C(OC(C)(C)C)C(=O)O)n(C)c(=O)c3ccccc23)cc1C` (stereo not shown) [Example 1, tert-Butoxy-[4-(4-methoxy-3,5-dimethyl-phenyl)-2-methyl-1-oxo-1,2-dihydro-isoquinolin-3-yl]-acetic acid], the IC50 was determined as 6.59 µM. In the case of `Cc1c(-c2c(C(OC(C)(C)C)C(=O)O)n(C)c(=O)c3cc(OCc4ccc(S(C)(=O)=O)cc4)ccc23)ccc2c1CCCO2` (stereo not shown) [Example 128, 2-(tert-butoxy)-2-{7-[(4-methanesulfonylphenyl)-methoxy]-2-methyl-4-(5-methyl-3,4-dihydro-2H-1-benzopyran-6-yl)-1-oxo-1,2-dihydroisoquinolin-3-yl}acetic acid] it was 0.38 µM. The result for `COc1ccc(-c2c(C(OC(C)(C)C)C(=O)O)n(C)c(=O)c3ccccc23)cc1OC` (stereo not shown) [Example 50, 2-(tert-butoxy)-2-[4-(3,4-dimethoxyphenyl)-2-methyl-1-oxo-1,2-dihydroisoquinolin-3-yl]acetic acid] reads 25.6 µM; that for `Cn1c(C(OC(C)(C)C)C(=O)O)c(-c2ccc3c(c2)CCCO3)c2ccc(F)cc2c1=O` (stereo not shown) [Example 57, 2-(tert-butoxy)-2-[4-(3,4-dihydro-2H-1-benzopyran-6-yl)-7-fluoro-2-methyl-1-oxo-1,2-dihydroisoquinolin-3-yl]acetic acid], 1.65 µM; that for `Cc1c(-c2c(C(OC(C)(C)C)C(=O)O)n(C)c(=O)c3ccc(F)cc23)cc(F)c2c1CCCO2` (stereo not shown) [Example 91, 2-(tert-butoxy)-2-[6-fluoro-4-(8-fluoro-5-methyl-3,4-dihydro-2H-1-benzopyran-6-yl)-2-methyl-1-oxo-1,2-dihydroisoquinolin-3-yl]acetic acid], 0.44 µM. In the case of `COc1ccc2c(-c3cc(F)c4c(c3C)CCCO4)c(C(OC(C)(C)C)C(=O)O)n(C)c(=O)c2c1` (stereo not shown) [Example 125, 2-(tert-butoxy)-2-[4-(8-fluoro-5-methyl-3,4-dihydro-2H-1-benzopyran-6-yl)-7-methoxy-2-methyl-1-oxo-1,2-dihydroisoquinolin-3-yl]acetic acid] it was 0.32 µM; in that of `COCc1ccc(-c2c(C(OC(C)(C)C)C(=O)O)n(C)c(=O)c3ccccc23)cc1` (stereo not shown) [Example 49, 2-(tert-butoxy)-2-{4-[4-(methoxymethyl)phenyl]-2-methyl-1-oxo-1,2-dihydroisoquinolin-3-yl}acetic acid], 15.6 µM; in that of `Cc1c(-c2c([C@H](OC(C)(C)C)C(=O)O)n(C)c(=O)c3cc(N4CCS(=O)(=O)CC4)ccc23)cc(F)c2c1CCCO2` (atropisomer, axis not shown; (M)) [Example 167, (2S)(M)-[(1,1-dimethylethyl)oxy][7-(1,1-dioxido-4-thiomorpholinyl)-4-(8-fluoro-5-methyl-3,4-dihydro-2H-chromen-6-yl)-2-methyl-1-oxo-1,2-dihydro-3-isoquinolinyl]ethanoic acid], 3.71 µM. For `CC(C)(C)OC(C(=O)O)c1c(-c2ccc3c(c2)CCCO3)c2ccccc2c(=O)n1C1CC1` (stereo not shown) [Example 30, 2-(tert-butoxy)-2-[2-cyclopropyl-4-(3,4-dihydro-2H-1-benzopyran-6-yl)-1-oxo-1,2-dihydroisoquinolin-3-yl]acetic acid], the IC50 amounted to 38.3 µM. In the case of `Cc1c(-c2c(C(OC(C)(C)C)C(=O)O)n(C)c(=O)c3c(F)cccc23)cc(F)c2c1CCCO2` (stereo not shown) [Example 90, 2-(tert-butoxy)-2-[8-fluoro-4-(8-fluoro-5-methyl-3,4-dihydro-2H-1-benzopyran-6-yl)-2-methyl-1-oxo-1,2-dihydroisoquinolin-3-yl]acetic acid] it was 0.51 µM. Take `Cc1c(-c2c([C@H](OC(C)(C)C)C(=O)O)n(C)c(=O)c3cc(OCc4ccccn4)ccc23)ccc2c1CCCO2` [Example 144, (2S)-2-(tert-butoxy)-2-[2-methyl-4-(5-methyl-3,4-dihydro-2H-1-benzopyran-6-yl)-1-oxo-7-(pyridin-2-ylmethoxy)-1,2-dihydroisoquinolin-3-yl]acetic acid]: the IC50 amounted to 0.04 µM.

Take `Cc1ccc(-c2c(C(OC(C)(C)C)C(=O)O)n(C)c(=O)c3cc(-c4cnn(C)c4)ccc23)cc1C` (stereo not shown) [Example 192, [(1,1-dimethylethyl)oxy][4-(3,4-dimethylphenyl)-2-methyl-7-(1-methyl-1H-pyrazol-4-yl)-1-oxo-1,2-dihydro-3-isoquinolinyl]acetic acid]: the concentration for half-maximal inhibition (IC50) is 0.35 µM.

Turning to `Cc1c(-c2c([C@H](OC(C)(C)C)C(=O)O)n(C)c(=O)c3cc(F)ccc23)cc(F)c2c1CCCO2` [Example 139, (2S)-2-(tert-butoxy)-2-[7-fluoro-4-(8-fluoro-5-methyl-3,4-dihydro-2H-1-benzopyran-6-yl)-2-methyl-1-oxo-1,2-dihydroisoquinolin-3-yl]acetic acid], the half-inhibitory concentration (IC50) came to 0.03 µM. Consider `Cc1c(-c2c(C(OC(C)(C)C)C(=O)O)n(C)c(=O)c3cc(OCc4ccc(Cl)cc4)ccc23)ccc2c1CCCO2` (stereo not shown) [Example 136, 2-(tert-butoxy)-2-{7-[(4-chlorophenyl)methoxy]-2-methyl-4-(5-methyl-3,4-dihydro-2H-1-benzopyran-6-yl)-1-oxo-1,2-dihydroisoquinolin-3-yl}acetic acid], for which the IC50 is 0.1 µM. On to `Cc1c(-c2c([C@H](OC(C)(C)C)C(=O)O)n(C)c(=O)c3cc(-c4cccn4C)ccc23)cc(F)c2c1CCCO2` (atropisomer, axis not shown; (M)) [Example 202, (S)(M)-[(1,1-dimethylethyl)oxy][4-(8-fluoro-5-methyl-3,4-dihydro-2H-chromen-6-yl)-2-methyl-7-(1-methyl-1H-pyrrol-2-yl)-1-oxo-1,2-dihydro-3-isoquinolinyl]ethanoic acid], for which the IC50 worked out at 0.02 µM. The result for `Cc1c(-c2c(C(OC(C)(C)C)C(=O)O)n(C)c(=O)c3cc(OCC(=O)O)ccc23)ccc2c1CCCO2` (stereo not shown) [Example 122, 2-({3-[(tert-butoxy)(carboxy)methyl]-2-methyl-4-(5-methyl-3,4-dihydro-2H-1-benzopyran-6-yl)-1-oxo-1,2-dihydroisoquinolin-7-yl}oxy)acetic acid] reads 50 µM.

Turning to `COc1cccc(-c2c(C(OC(C)(C)C)C(=O)O)n(C)c(=O)c3ccccc23)c1` (stereo not shown) [Example 15, 2-(tert-butoxy)-2-[4-(3-methoxyphenyl)-2-methyl-1-oxo-1,2-dihydroisoquinolin-3-yl]acetic acid], the concentration for half-maximal inhibition (IC50) turned out to be 8.59 µM. For the compound `Cn1c(C(OC(C)(C)C)C(=O)O)c(-c2ccc3c(c2)OCCO3)c2ccccc2c1=O` (stereo not shown) [Example 53, 2-(tert-butoxy)-2-[4-(2,3-dihydro-1,4-benzodioxin-6-yl)-2-methyl-1-oxo-1,2-dihydroisoquinolin-3-yl]acetic acid], the IC50 was determined as 2.46 µM. In the case of `Cc1cc(-c2c(C(OC(C)(C)C)C(=O)O)n(C)c(=O)c3ccccc23)cc(C)c1Cl` (stereo not shown) [Example 66, 2-(tert-butoxy)-2-[4-(4-chloro-3,5-dimethylphenyl)-2-methyl-1-oxo-1,2-dihydroisoquinolin-3-yl]acetic acid] it was 3.6 µM; in that of `Cc1cc2c(cc1-c1c(C(OC(C)(C)C)C(=O)O)n(C)c(=O)c3ccccc13)CCCO2` (stereo not shown) [Example 20, 2-(tert-butoxy)-2-[2-methyl-4-(7-methyl-3,4-dihydro-2H-1-benzopyran-6-yl)-1-oxo-1,2-dihydroisoquinolin-3-yl]acetic acid], 3.79 µM. The result for `Cn1c(C(OC(C)(C)C)C(=O)O)c(-c2ccc3c(c2)CCC(C)(C)O3)c2ccccc2c1=O` (stereo not shown) [Example 78, 2-(tert-butoxy)-2-[4-(2,2-dimethyl-3,4-dihydro-2H-1-benzopyran-6-yl)-2-methyl-1-oxo-1,2-dihydroisoquinolin-3-yl]acetic acid] reads 41.6 µM.

The record behind these values is patent US9029391B2 (priority 2011, dated 2015).
